Patent US10568879B2 (GALAPAGOS NV, priority 2015, dated 2020)

How the values were obtained:
[1] = tested on: human neutrophils; assay: Human neutrophil migration assay; format: cell-based; settings: for IC50: Homo sapiens, Neutrophil, embelin at EC80 as chemotactic agent, 1 h at 37° C., read-out: Human neutrophil migration IC50
Summary of the method: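 Neutrophils freshly isolated from human buffy coats by dextran sedimentation and hypotonic lysis were preincubated with compound for 30 min at room temperature. Chemotaxis then ran in a Transwell system for 1 h at 37° C, 5% CO2. Migrated cells in the lower well were quantified by ATPlite luminescence.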

[2] = biological target: T1, GPR84 (Homo sapiens, UniProt Q9NQS5); settings: literature; cited from earlier work
T1 construct: expressed in transfected cells

[3] = biological target: T1, GPR84; assay: GPR84 [35S]GTPγS binding assay; format: biochemical; settings: 3,3′-diindolylmethane at EC80; membranes from stable cell line over expressing GPR84
Summary of the method: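 Antagonist-mode [35S]GTPγS binding on membranes from a GPR84-overexpressing stable line (GDP-preincubated), stimulated with 3,3′-diindolylmethane at EC80. Buffer 20 mM Tris pH 7.5, 5 mM MgCl2, 250 mM NaCl, saponin; 0.1 nM [35S]GTPγS, 90 min at room temperature, SPA bead read-out.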

[4] = Chemical stability in aqueous solutions with different pH; format: physicochemical; settings: 2 μM; for % rem. (2 h) pH 1.2 / % rem. (24 h) pH 1.2: pH 1.2 hydrochloric acid buffer; for % rem. (2 h) pH 1.2 / % rem. (2 h) pH 5.0 / % rem. (2 h) pH 7.4 / % rem. (2 h) pH 9.0: 2 h incubation at 37° C.; for % rem. (24 h) pH 1.2 / % rem. (24 h) pH 5.0 / % rem. (24 h) pH 7.4 / % rem. (24 h) pH 9.0: 24 h incubation at 37° C.; for % rem. (2 h) pH 5.0 / % rem. (24 h) pH 5.0: pH 5.0 acetate buffer; for % rem. (2 h) pH 7.4 / % rem. (24 h) pH 7.4: pH 7.4 phosphate buffer; for % rem. (2 h) pH 9.0 / % rem. (24 h) pH 9.0: pH 9.0 Tris buffer
Method: This in vitro model is aimed at assessing the stability of a test compound in aqueous solutions with different pH. The decrease in parent compound is assessed by measuring the percentage parent remaining after 2 and 24 h incubation at 37° C.
A 2 mM DMSO stock is made for each test compound starting from dry matter. Then a 80 μM working solution of compound in DMSO is made by diluting the 2 mM DMSO.
The 80 μM working solution is diluted to a final concentration of 2 μM-2.5% DMSO in buffer with the desired pH (pH 1.2: hydrochloric acid buffer, pH 5.0: acetate buffer, pH 7.4: phosphate buffer, pH 9.0: Tris buffer) in 96-well plates with glass inserts (Cat no. 548-0201/548-0202, VWR-Thermo Scientific). Two replicates are run for each buffer solution and each time point.
One set of vials is incubated for 24 h at 200 rpm and another for 2 h at 200 rpm. To stop the reaction after the respective incubation times, 4 volumes of acetonitrile containing the internal standard (stop solution) are added to the reaction solution and the vials are vortexed briefly.
For the 0 h incubation, the stop solution with internal standard is first added to the buffer solution in glass vials and then the working solution of test compound (final concentration: 2 μM-2.5% DMSO) is added.
Propranolol is used as internal standard, but if the mass difference is too low with the test compound(s), another product is selected as internal standard. The concentration of the internal standard is chosen to obtain a peak area half of the average peak area of the test compounds and control at time point 0.
Analysis is performed on an LCMS-MS system (API2000 or API4000). The average of the peak areas of the two replicates from the parent compound at time 0 divided by the peak area of the internal standard is considered to be 100% remaining. The percentage remaining after 2 and 24 h of incubation is calculated for all other peaks and the percentage remaining after 2 and 24 h is reported.

[5] = tested on: RAW264.7 murine macrophage-like cells; settings: RAW264.7 cells stimulated with LPS; cited from earlier work

T1 sequence (Q9NQS5 whole entry): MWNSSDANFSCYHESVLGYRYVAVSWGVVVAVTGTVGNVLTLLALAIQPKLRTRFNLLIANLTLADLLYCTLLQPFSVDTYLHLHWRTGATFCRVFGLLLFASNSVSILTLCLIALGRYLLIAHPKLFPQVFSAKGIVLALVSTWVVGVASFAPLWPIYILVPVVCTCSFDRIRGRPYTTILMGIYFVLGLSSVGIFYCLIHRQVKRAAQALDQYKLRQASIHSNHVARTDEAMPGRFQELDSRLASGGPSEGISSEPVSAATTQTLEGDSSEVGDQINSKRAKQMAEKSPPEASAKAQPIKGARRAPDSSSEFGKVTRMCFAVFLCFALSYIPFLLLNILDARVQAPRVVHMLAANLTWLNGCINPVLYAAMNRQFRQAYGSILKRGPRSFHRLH

## c1ccc2c(Cc3c[nH]c4ccccc34)c[nH]c2c1 [3,3′-diindolylmethane, reference compound]
[1]
  neutrophil chemotaxis induced by GPR84 agonists: induce neutrophil chemotaxis
[2]
  GPR84 agonist activity: some GPR84 agonist activity

## CCCCCCCCNc1cc(=O)[nH]c(=O)[nH]1 [6-n-octylaminouracil]
[2]
  GPR84 agonist activity: some GPR84 agonist activity

## COc1cc2c(cc1OC)-c1c(C)c(=O)cc(OC[C@@H]3COCCO3)n1CC2 [Compound 1, 4-[[(2S)-1,4-dioxan-2-yl]methoxy]-9,10-dimethoxy-1-methyl-6,7-dihydrobenzo[a]quinolizin-2-one]
[3]
  IC50: 100 to 500 nM
[1]
  IC50: 100 to 500 nM
[4]
  % rem. (2 h) pH 1.2: *** (>80%)
  % rem. (24 h) pH 1.2: *** (>80%)
  % rem. (2 h) pH 5.0: *** (>80%)
  % rem. (24 h) pH 5.0: *** (>80%)
  % rem. (2 h) pH 7.4: *** (>80%)
  % rem. (24 h) pH 7.4: *** (>80%)
  % rem. (2 h) pH 9.0: *** (>80%)
  % rem. (24 h) pH 9.0: *** (>80%)

## Cc1c2n(c(NCC3CCCO3)cc1=O)CCc1cc(OCC(F)(F)F)ccc1-2 (centres unmarked) [Compound 8, 1-methyl-4-(tetrahydrofuran-2-ylmethylamino)-9-(2,2,2-trifluoroethoxy)-6,7-dihydrobenzo[a]quinolizin-2-one]
[3]
  IC50: 100 to 500 nM
[1]
  IC50: 0.01 to 100 nM
[4]
  % rem. (2 h) pH 1.2: *** (>80%)
  % rem. (24 h) pH 1.2: *** (>80%)
  % rem. (2 h) pH 5.0: *** (>80%)
  % rem. (24 h) pH 5.0: *** (>80%)
  % rem. (2 h) pH 7.4: *** (>80%)
  % rem. (24 h) pH 7.4: *** (>80%)
  % rem. (2 h) pH 9.0: *** (>80%)
  % rem. (24 h) pH 9.0: *** (>80%)

## COc1ccc2c(c1OC)CCn1c(NCC3CCCO3)cc(=O)c(C)c1-2 (centres unmarked) [Compound 10, 8,9-dimethoxy-1-methyl-4-(tetrahydrofuran-2-ylmethylamino)-6,7-dihydrobenzo[a]quinolizin-2-one]
[3]
  IC50: 0.01 to 100 nM
[1]
  IC50: 0.01 to 100 nM
[4]
  % rem. (2 h) pH 1.2: *** (>80%)
  % rem. (24 h) pH 1.2: *** (>80%)
  % rem. (2 h) pH 5.0: *** (>80%)
  % rem. (24 h) pH 5.0: *** (>80%)
  % rem. (2 h) pH 7.4: *** (>80%)
  % rem. (24 h) pH 7.4: *** (>80%)
  % rem. (2 h) pH 9.0: *** (>80%)
  % rem. (24 h) pH 9.0: *** (>80%)

## COc1ccc2c(c1OC)CCn1c(OC[C@@H]3COCCO3)cc(=O)c(C)c1-2 [Compound 12, 4-[[(2S)-1,4-dioxan-2-yl]methoxy]-8,9-dimethoxy-1-methyl-6,7-dihydrobenzo[a]quinolizin-2-one]
[3]
  IC50: 100 to 500 nM
[1]
  IC50: 100 to 500 nM
[4]
  % rem. (2 h) pH 1.2: *** (>80%)
  % rem. (24 h) pH 1.2: *** (>80%)
  % rem. (2 h) pH 5.0: *** (>80%)
  % rem. (24 h) pH 5.0: *** (>80%)
  % rem. (2 h) pH 7.4: *** (>80%)
  % rem. (24 h) pH 7.4: *** (>80%)
  % rem. (2 h) pH 9.0: *** (>80%)
  % rem. (24 h) pH 9.0: *** (>80%)

## Cc1c2n(c(OC[C@@H]3COCCO3)cc1=O)CCc1cc(OCC(F)(F)F)ccc1-2 [Compound 18, 4-[[(2S)-1,4-dioxan-2-yl]methoxy]-1-methyl-9-(2,2,2-trifluoroethoxy)-6,7-dihydrobenzo[a]quinolizin-2-one]
[3]
  IC50: 0.01 to 100 nM
[1]
  IC50: 0.01 to 100 nM
[4]
  % rem. (2 h) pH 1.2: *** (>80%)
  % rem. (24 h) pH 1.2: *** (>80%)
  % rem. (2 h) pH 5.0: *** (>80%)
  % rem. (24 h) pH 5.0: *** (>80%)
  % rem. (2 h) pH 7.4: *** (>80%)
  % rem. (24 h) pH 7.4: *** (>80%)
  % rem. (2 h) pH 9.0: *** (>80%)
  % rem. (24 h) pH 9.0: *** (>80%)

## CCCCCCCCCC(=O)O [capric acid]
[5]
  secretion of interleukin-12 p40 subunit (IL-12 p40): dose dependently increased

## CCCCCCCCCCCC(=O)O [lauric acid]
[5]
  secretion of interleukin-12 p40 subunit (IL-12 p40): dose dependently increased

## CCCCCCCCCCC(=O)O [undecanoic acid]
[5]
  secretion of interleukin-12 p40 subunit (IL-12 p40): dose dependently increased
